Measured values published in ChEMBL document CHEMBL4725367, “Novel anticancer Hsp90 inhibitor disubstituted pyrazolyl 2-aminopyrimidine compound 7t induces cell cycle arrest and apoptosis via mitochondrial pathway in MCF-7 cells” (Bioorg Med Chem Lett, 2020).

Columns and labels:
[1] = target: T1, Heat shock protein HSP90 (Homo sapiens) (UniProt P07900+P08238); experiment: Inhibition of HSP90 in human MCF7 cells assessed as induction of apoptosis by measuring late apototic cells at 10 uM measured after 24 hrs by annexinV-FITC/propidium iodide staining based flow cytometry (reference value: 7.91 %); type: cell-based; design: scale not given: the % may be the effect or the level left
[2] = target: T1, Heat shock protein HSP90 (Homo sapiens); experiment: Inhibition of HSP90 in human MCF7 cells assessed as induction of mitochondrial membrane potential loss by measuring cell population with intact mitochondrial membrane potential at 5 uM after 24 hrs by JC1 staining-based flow cytometry analysis (reference value: 92.39 %); design: scale not given: the % may be the effect or the level left
[3] = target: T1, Heat shock protein HSP90 (Homo sapiens); experiment: Inhibition of HSP90 in human MCF7 cells assessed as cell cycle arrest by measuring accumulation at G2/M phase at 2.5 uM measured after 24 hrs by RNaseA/propidium iodide staining based flow cytometric analysis (reference value: 25.08 %); design: scale not given: the % may be the effect or the level left
[4] = target: T1, Heat shock protein HSP90 (Homo sapiens); experiment: Inhibition of HSP90 in human MCF7 cells assessed as induction of apoptosis by measuring late apototic cells at 2.5 uM measured after 24 hrs by annexinV-FITC/propidium iodide staining based flow cytometry (reference value: 7.91 %); type: cell-based; design: scale not given: the % may be the effect or the level left
[5] = target: T1, Heat shock protein HSP90 (Homo sapiens); experiment: Inhibition of HSP90 in human MCF7 cells assessed as induction of mitochondrial membrane potential loss by measuring cell population with intact mitochondrial membrane potential at 10 uM after 24 hrs by JC1 staining-based flow cytometry analysis (reference value: 92.39 %); design: scale not given: the % may be the effect or the level left
[6] = target: T1, Heat shock protein HSP90 (Homo sapiens); experiment: Inhibition of HSP90 in human MCF7 cells assessed as increase in ROS generation by measuring fluorescence intensity at 2.5 to 10 uM after 24 hrs by DCFDA staining based flow cytometry; type: cell-based; details: dose microM 2.5-10, time 24.0 hrs
[7] = target: T1, Heat shock protein HSP90 (Homo sapiens); experiment: Inhibition of HSP90 in human MCF7 cells assessed as induction of apoptosis by measuring live cells at 2.5 uM measured after 24 hrs by annexinV-FITC/propidium iodide staining based flow cytometry (reference value: 90.77 %); type: cell-based; design: scale not given: the % may be the effect or the level left
[8] = target: T1, Heat shock protein HSP90 (Homo sapiens); experiment: Inhibition of HSP90 in human MCF7 cells assessed as cell cycle arrest by measuring accumulation at Sub-G1 phase at 2.5 uM measured after 24 hrs by RNaseA/propidium iodide staining based flow cytometric analysis (reference value: 3.75 %); design: scale not given: the % may be the effect or the level left
[9] = target: T1, Heat shock protein HSP90 (Homo sapiens); experiment: Inhibition of HSP90 in human MCF7 cells assessed as induction of apoptosis by measuring necrotic cells at 10 uM measured after 24 hrs by annexinV-FITC/propidium iodide staining based flow cytometry (reference value: 0.01 %); type: cell-based; design: scale not given: the % may be the effect or the level left
[10] = target: T1, Heat shock protein HSP90 (Homo sapiens); experiment: Inhibition of HSP90 in human MCF7 cells assessed as induction of mitochondrial membrane potential loss by measuring cell population with intact mitochondrial membrane potential at 2.5 uM after 24 hrs by JC1 staining-based flow cytometry analysis (reference value: 92.39 %); design: scale not given: the % may be the effect or the level left
[11] = target: T1, Heat shock protein HSP90 (Homo sapiens); experiment: Inhibition of HSP90 in human MCF7 cells assessed as cell cycle arrest by measuring accumulation at G0/G1 phase at 2.5 uM measured after 24 hrs by RNaseA/propidium iodide staining based flow cytometric analysis (reference value: 39.10 %); design: scale not given: the % may be the effect or the level left
[12] = target: T1, Heat shock protein HSP90 (Homo sapiens); experiment: Inhibition of HSP90 in human MCF7 cells assessed as induction of apoptosis by measuring early apototic cells at 10 uM measured after 24 hrs by annexinV-FITC/propidium iodide staining based flow cytometry (reference value: 1.31 %); type: cell-based; design: scale not given: the % may be the effect or the level left
[13] = target: T1, Heat shock protein HSP90 (Homo sapiens); experiment: Inhibition of HSP90 in human MCF7 cells assessed as induction of morphological changes by measuring membrane blebbing at 2.5 to 10 uM by acridine orange/ethidium bromide staining based fluorescence microscopy analysis; type: cell-based; details: dose microM 2.5-10
[14] = target: T1, Heat shock protein HSP90 (Homo sapiens); experiment: Inhibition of HSP90 in human MCF7 cells assessed as induction of mitochondrial membrane potential loss by measuring cell population with mitochondrial membrane potential collapse at 10 uM after 24 hrs by JC1 staining-based flow cytometry analysis (reference value: 6.53 %); design: scale not given: the % may be the effect or the level left
[15] = target: T1, Heat shock protein HSP90 (Homo sapiens); experiment: Inhibition of HSP90 in human MCF7 cells assessed as induction of apoptosis by measuring total apoptotic and dead cell population at 0.5 to 4 uM measured after 24 hrs by annexinV-FITC/propidium iodide staining based flow cytometry; details: dose microM 0.5-4, time 24.0 hrs
[16] = target: T1, Heat shock protein HSP90 (Homo sapiens); experiment: Inhibition of HSP90 in human MCF7 cells assessed as cell cycle arrest by measuring accumulation at G0/G1 phase at 10 uM measured after 24 hrs by RNaseA/propidium iodide staining based flow cytometric analysis (reference value: 39.10 %); design: scale not given: the % may be the effect or the level left
[17] = target: T1, Heat shock protein HSP90 (Homo sapiens); experiment: Inhibition of HSP90 in human MCF7 cells assessed as induction of apoptosis by measuring live cells at 10 uM measured after 24 hrs by annexinV-FITC/propidium iodide staining based flow cytometry (reference value: 90.77 %); type: cell-based; design: scale not given: the % may be the effect or the level left
[18] = target: T1, Heat shock protein HSP90 (Homo sapiens); experiment: Inhibition of HSP90 in human MCF7 cells assessed as induction of mitochondrial membrane potential loss by measuring cell population with mitochondrial membrane potential collapse at 2.5 to 10 microM after 24 hrs by JC1 staining-based flow cytometry analysis; details: dose microM 2.5-10, time 24.0 hrs
[19] = target: T1, Heat shock protein HSP90 (Homo sapiens); experiment: Inhibition of HSP90 in human MCF7 cells assessed as cell cycle arrest by measuring accumulation at S phase at 2.5 uM measured after 24 hrs by RNaseA/propidium iodide staining based flow cytometric analysis (reference value: 7.08 %); design: scale not given: the % may be the effect or the level left
[20] = target: T1, Heat shock protein HSP90 (Homo sapiens); experiment: Inhibition of HSP90 in human MCF7 cells assessed as induction of morphological changes by measuring chromatin condensation and fragmentation in nucleus at 2.5 to 10 uM by acridine orange/ethidium bromide staining based fluorescence microscopy analysis; type: cell-based; details: dose microM 2.5-10

SMILES: Nc1nc(-c2ccc(Br)cc2)cc(-c2cn(-c3ccc(Cl)cc3)nc2-c2ccc([N+](=O)[O-])cc2)n1
- Activity [1]: 30.5%
- Activity [2]: 75.3%
- Activity [3]: 27.2%
- Activity [4]: 10.1%
- Activity [5]: 46%
- inhibition [6]: Dose-dependent effect
- Activity [7]: 87.9%
- Activity [8]: 6.27%
- Activity [9]: 0.12%
- Activity [10]: 85.4%
- Activity [11]: 35.2%
- Activity [12]: 4.11%
- inhibition [13]: Dose-dependent effect
- Activity [14]: 53%
- inhibition [15]: Dose-dependent effect
- Activity [16]: 25.2%
- Activity [17]: 62.3%
- inhibition [18]: Dose-dependent effect
- Activity [19]: 7.74%
- inhibition [20]: Dose-dependent effect
